Tested on: DNA repair protein genes
Assay: DNA chip mRNA expression in yeast, DNA repair protein genes (Table 3)
Type: cell-based, Saccharomyces cerevisiae S288C
Details: incubated two hours, concentrations as in the 1st table
How it was run: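 Chemical exposure: 2 h, log-phase S. cerevisiae S288C, YPD, 25° C., dose set to inhibit growth without death. Profiling: mRNA labeled by reverse transcription with Cy3- or Cy5-dUTP, hybridized to whole-genome array. Output: fluorescence ratio against untreated culture.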

CN(C)C(=S)SSC(=S)N(C)C [(10), Tetramethylthiuram disulfide]
The level of expressed mRNA in the presence of chemical substance/The level of expressed mRNA in the absence of chemical substance (yeast gene YAL015C): 2.7 | The level of expressed mRNA in the presence of chemical substance/The level of expressed mRNA in the absence of chemical substance (yeast gene YAR007C): 1.7 | The level of expressed mRNA in the presence of chemical substance/The level of expressed mRNA in the absence of chemical substance (yeast gene YBL019W): 1.4 | The level of expressed mRNA in the presence of chemical substance/The level of expressed mRNA in the absence of chemical substance (yeast gene YBR073W): 1.8 | The level of expressed mRNA in the presence of chemical substance/The level of expressed mRNA in the absence of chemical substance (yeast gene YBR272C): 2.7 | The level of expressed mRNA in the presence of chemical substance/The level of expressed mRNA in the absence of chemical substance (yeast gene YCR014C): 1.0 | The level of expressed mRNA in the presence of chemical substance/The level of expressed mRNA in the absence of chemical substance (yeast gene YDL017W): 1.8 | The level of expressed mRNA in the presence of chemical substance/The level of expressed mRNA in the absence of chemical substance (yeast gene YDL059C): 7.8 | The level of expressed mRNA in the presence of chemical substance/The level of expressed mRNA in the absence of chemical substance (yeast gene YDL200C): 1.8 | The level of expressed mRNA in the presence of chemical substance/The level of expressed mRNA in the absence of chemical substance (yeast gene YDR054C): 3.2 | The level of expressed mRNA in the presence of chemical substance/The level of expressed mRNA in the absence of chemical substance (yeast gene YDR369C): 1.8 | The level of expressed mRNA in the presence of chemical substance/The level of expressed mRNA in the absence of chemical substance (yeast gene YEL019C): 0.7 | The level of expressed mRNA in the presence of chemical substance/The level of expressed mRNA in the absence of chemical substance (yeast gene YEL037C): 1.2 | The level of expressed mRNA in the presence of chemical substance/The level of expressed mRNA in the absence of chemical substance (yeast gene YER162C): 1.6 | The level of expressed mRNA in the presence of chemical substance/The level of expressed mRNA in the absence of chemical substance (yeast gene YFL014W): 5.8 | The level of expressed mRNA in the presence of chemical substance/The level of expressed mRNA in the absence of chemical substance (yeast gene YGL058W): 1.8 | The level of expressed mRNA in the presence of chemical substance/The level of expressed mRNA in the absence of chemical substance (yeast gene YGL091C): 6.0 | The level of expressed mRNA in the presence of chemical substance/The level of expressed mRNA in the absence of chemical substance (yeast gene YGL127C): 1.5 | The level of expressed mRNA in the presence of chemical substance/The level of expressed mRNA in the absence of chemical substance (yeast gene YGL163C): 2.3 | The level of expressed mRNA in the presence of chemical substance/The level of expressed mRNA in the absence of chemical substance (yeast gene YGL249W): 2.4 | The level of expressed mRNA in the presence of chemical substance/The level of expressed mRNA in the absence of chemical substance (yeast gene YGR180C): 1.5 | The level of expressed mRNA in the presence of chemical substance/The level of expressed mRNA in the absence of chemical substance (yeast gene YGR231C): 2.3 | The level of expressed mRNA in the presence of chemical substance/The level of expressed mRNA in the absence of chemical substance (yeast gene YGR258C): 1.5 | The level of expressed mRNA in the presence of chemical substance/The level of expressed mRNA in the absence of chemical substance (yeast gene YHR164C): 3.1 | The level of expressed mRNA in the presence of chemical substance/The level of expressed mRNA in the absence of chemical substance (yeast gene YIL036W): 2.7 | The level of expressed mRNA in the presence of chemical substance/The level of expressed mRNA in the absence of chemical substance (yeast gene YIL072W): 2.1 | The level of expressed mRNA in the presence of chemical substance/The level of expressed mRNA in the absence of chemical substance (yeast gene YIL143C): 3.5 | The level of expressed mRNA in the presence of chemical substance/The level of expressed mRNA in the absence of chemical substance (yeast gene YIL153W): 1.1 | The level of expressed mRNA in the presence of chemical substance/The level of expressed mRNA in the absence of chemical substance (yeast gene YIR002C): 1.4 | The level of expressed mRNA in the presence of chemical substance/The level of expressed mRNA in the absence of chemical substance (yeast gene YJL026W): 1.1 | The level of expressed mRNA in the presence of chemical substance/The level of expressed mRNA in the absence of chemical substance (yeast gene YJR046W): 2.4 | The level of expressed mRNA in the presence of chemical substance/The level of expressed mRNA in the absence of chemical substance (yeast gene YJR052W): 2.3 | The level of expressed mRNA in the presence of chemical substance/The level of expressed mRNA in the absence of chemical substance (yeast gene YKL145W): 2.7 | The level of expressed mRNA in the presence of chemical substance/The level of expressed mRNA in the absence of chemical substance (yeast gene YLR103C): 0.5 | The level of expressed mRNA in the presence of chemical substance/The level of expressed mRNA in the absence of chemical substance (yeast gene YLR233C): 0.5 | The level of expressed mRNA in the presence of chemical substance/The level of expressed mRNA in the absence of chemical substance (yeast gene YLR288C): 1.3 | The level of expressed mRNA in the presence of chemical substance/The level of expressed mRNA in the absence of chemical substance (yeast gene YML032C): 1.1 | The level of expressed mRNA in the presence of chemical substance/The level of expressed mRNA in the absence of chemical substance (yeast gene YML058W): 1.2 | The level of expressed mRNA in the presence of chemical substance/The level of expressed mRNA in the absence of chemical substance (yeast gene YMR035W): 1.6 | The level of expressed mRNA in the presence of chemical substance/The level of expressed mRNA in the absence of chemical substance (yeast gene YMR072W): 1.2 | The level of expressed mRNA in the presence of chemical substance/The level of expressed mRNA in the absence of chemical substance (yeast gene YMR096W): 3.7 | The level of expressed mRNA in the presence of chemical substance/The level of expressed mRNA in the absence of chemical substance (yeast gene YMR284W): 1.8 | The level of expressed mRNA in the presence of chemical substance/The level of expressed mRNA in the absence of chemical substance (yeast gene YNL213C): 1.5 | The level of expressed mRNA in the presence of chemical substance/The level of expressed mRNA in the absence of chemical substance (yeast gene YNL250W): 2.3 | The level of expressed mRNA in the presence of chemical substance/The level of expressed mRNA in the absence of chemical substance (yeast gene YNL261W): 1.5 | The level of expressed mRNA in the presence of chemical substance/The level of expressed mRNA in the absence of chemical substance (yeast gene YNL312W): 2.5 | The level of expressed mRNA in the presence of chemical substance/The level of expressed mRNA in the absence of chemical substance (yeast gene YOL043C): 1.8 | The level of expressed mRNA in the presence of chemical substance/The level of expressed mRNA in the absence of chemical substance (yeast gene YOR005C): 1.5 | The level of expressed mRNA in the presence of chemical substance/The level of expressed mRNA in the absence of chemical substance (yeast gene YOR386W): 3.0 | The level of expressed mRNA in the presence of chemical substance/The level of expressed mRNA in the absence of chemical substance (yeast gene YPL022W): 1.6 | The level of expressed mRNA in the presence of chemical substance/The level of expressed mRNA in the absence of chemical substance (yeast gene YPL164C): 2.0 | The level of expressed mRNA in the presence of chemical substance/The level of expressed mRNA in the absence of chemical substance (yeast gene YPL194W): 3.1 | The level of expressed mRNA in the presence of chemical substance/The level of expressed mRNA in the absence of chemical substance (yeast gene YPR025C): 1.7

CCCCC[C@H](O)CC(=O)CCc1ccc(O)c(OC)c1 [(13), gingerol]
The level of expressed mRNA in the presence of chemical substance/The level of expressed mRNA in the absence of chemical substance (yeast gene YDL200C): 1.1 | The level of expressed mRNA in the presence of chemical substance/The level of expressed mRNA in the absence of chemical substance (yeast gene YEL019C): 1.0 | The level of expressed mRNA in the presence of chemical substance/The level of expressed mRNA in the absence of chemical substance (yeast gene YGL058W): 1.0 | The level of expressed mRNA in the presence of chemical substance/The level of expressed mRNA in the absence of chemical substance (yeast gene YIL072W): 1.4 | The level of expressed mRNA in the presence of chemical substance/The level of expressed mRNA in the absence of chemical substance (yeast gene YLR233C): 1.0 | The level of expressed mRNA in the presence of chemical substance/The level of expressed mRNA in the absence of chemical substance (yeast gene YLR288C): 0.7 | The level of expressed mRNA in the presence of chemical substance/The level of expressed mRNA in the absence of chemical substance (yeast gene YMR284W): 1.0 | The level of expressed mRNA in the presence of chemical substance/The level of expressed mRNA in the absence of chemical substance (yeast gene YNL312W): 0.7 | The level of expressed mRNA in the presence of chemical substance/The level of expressed mRNA in the absence of chemical substance (yeast gene YPL164C): 1.0 | The level of expressed mRNA in the presence of chemical substance/The level of expressed mRNA in the absence of chemical substance (yeast gene YPR025C): 1.1

From patent US8192962B2, “Processes for detecting toxic substances” (Daikin Industries, Ltd., priority 2001, dated 2012)
